In PubChem BioAssay AID2060904 (Molecular Pharmacology Branch, DTP, NCI, 2025):
Values belong to the molecule of their own block, whether it stands above or below them.

Test system: 349418-098-R-PDC complex spheroid viability
Assay: Anticancer human tumor 349418-098-R-PDC patient-derived lung adenocarcinoma cell line growth inhibition [RAS]
Settings: for viability, T/C: stronger effect = lower value
Summary of the method: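 Multi-cell-type spheroids: tumor cells plus HUVEC endothelial cells and mesenchymal stem cells. RAS-pathway inhibitors were combined with targeted agents, each dosed in half-log steps down from clinical Cmax, or from 10 microM when Cmax was unknown.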
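Note: spheroids exposed to compound for seven days before viability readout.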

IC50 (curve of first compound, second compound 0.000949 µM): 603 nM
IC50 (curve of first compound, second compound 0.003 µM): 357 nM
IC50 (curve of first compound, second compound 0.00949 µM): 501 nM
IC50 (curve of first compound, second compound 0.03 µM): 507 nM
IC50 (curve of first compound, second compound 0.0949 µM): 523 nM
IC50 (curve of first compound, second compound 0.3 µM): 352 nM
SMILES: CC(C)NCC(C(=O)N1CCN(c2ncnc3c2C(C)CC3O)CC1)c1ccc(Cl)cc1 (configuration not stated) + CCn1c(-c2cccnc2C(C)OC)c2c3cc(ccc31)N1CCOC(CC(NC(=O)C(C(C)C)N(C)C(=O)C3(F)CCN(C(=O)C#CC(C)(C)N(C)C)CC3)C(=O)N3CCCC(N3)C(=O)OCC(C)(C)C2)C1
viability, T/C (second compound 0.000949 µM, first compound 0.0316 µM): 83.5%
viability, T/C (second compound 0.000949 µM, first compound 0.1 µM): 88.7%
viability, T/C (second compound 0.000949 µM, first compound 0.316 µM): 76%
viability, T/C (second compound 0.000949 µM, first compound 1 µM): 29.1%
viability, T/C (second compound 0.000949 µM, first compound 3.16 µM): 24.2%
viability, T/C (second compound 0.000949 µM, first compound 10 µM): 10.7%
viability, T/C (second compound 0.003 µM, first compound 0.0316 µM): 103%
viability, T/C (second compound 0.003 µM, first compound 0.1 µM): 60.9%
viability, T/C (second compound 0.003 µM, first compound 0.316 µM): 51.6%
viability, T/C (second compound 0.003 µM, first compound 1 µM): 48.1%
viability, T/C (second compound 0.003 µM, first compound 3.16 µM): 18.7%
viability, T/C (second compound 0.003 µM, first compound 10 µM): 10.2%
viability, T/C (second compound 0.00949 µM, first compound 0.0316 µM): 101%
viability, T/C (second compound 0.00949 µM, first compound 0.1 µM): 85.7%
viability, T/C (second compound 0.00949 µM, first compound 0.316 µM): 58.9%
viability, T/C (second compound 0.00949 µM, first compound 1 µM): 35%
viability, T/C (second compound 0.00949 µM, first compound 3.16 µM): 19.6%
viability, T/C (second compound 0.00949 µM, first compound 10 µM): 8.77%
viability, T/C (second compound 0.03 µM, first compound 0.0316 µM): 97.6%
viability, T/C (second compound 0.03 µM, first compound 0.1 µM): 86.8%
viability, T/C (second compound 0.03 µM, first compound 0.316 µM): 56.8%
viability, T/C (second compound 0.03 µM, first compound 1 µM): 33.3%
viability, T/C (second compound 0.03 µM, first compound 3.16 µM): 28.5%
viability, T/C (second compound 0.03 µM, first compound 10 µM): 8.92%
viability, T/C (second compound 0.0949 µM, first compound 0.0316 µM): 83.3%
viability, T/C (second compound 0.0949 µM, first compound 0.1 µM): 75.5%
viability, T/C (second compound 0.0949 µM, first compound 0.316 µM): 62.9%
viability, T/C (second compound 0.0949 µM, first compound 1 µM): 32.5%
viability, T/C (second compound 0.0949 µM, first compound 3.16 µM): 24.2%
viability, T/C (second compound 0.0949 µM, first compound 10 µM): 8.81%
viability, T/C (second compound 0.3 µM, first compound 0.0316 µM): 94.9%
viability, T/C (second compound 0.3 µM, first compound 0.1 µM): 76.7%
viability, T/C (second compound 0.3 µM, first compound 0.316 µM): 46.5%
viability, T/C (second compound 0.3 µM, first compound 1 µM): 34.3%
viability, T/C (second compound 0.3 µM, first compound 3.16 µM): 27.5%
viability, T/C (second compound 0.3 µM, first compound 10 µM): 11%

IC50 (curve of first compound, second compound 0.0316 µM): > 10000 nM
IC50 (curve of first compound, second compound 0.1 µM): 9340 nM
IC50 (curve of first compound, second compound 0.316 µM): > 10000 nM
IC50 (curve of first compound, second compound 1 µM): > 10000 nM
IC50 (curve of first compound, second compound 3.16 µM): > 10000 nM
IC50 (curve of first compound, second compound 10 µM): > 10000 nM
SMILES: NC1c2ccccc2OC12CCN(c1cnc3c(N4CCCc5ncccc54)n[nH]c3n1)CC2 (configuration not stated) + C#Cc1c(F)ccc2cc(O)cc(-c3ncc4c(N5CC6CCC(C5)N6)nc(OCC56CCCN5CC(F)C6)nc4c3F)c12
viability, T/C (second compound 0.0316 µM, first compound 0.0316 µM): 113%
viability, T/C (second compound 0.0316 µM, first compound 0.1 µM): 108%
viability, T/C (second compound 0.0316 µM, first compound 0.316 µM): 96.7%
viability, T/C (second compound 0.0316 µM, first compound 1 µM): 79.7%
viability, T/C (second compound 0.0316 µM, first compound 3.16 µM): 90.1%
viability, T/C (second compound 0.0316 µM, first compound 10 µM): 63%
viability, T/C (second compound 0.1 µM, first compound 0.0316 µM): 86.7%
viability, T/C (second compound 0.1 µM, first compound 0.1 µM): 86.2%
viability, T/C (second compound 0.1 µM, first compound 0.316 µM): 94.7%
viability, T/C (second compound 0.1 µM, first compound 1 µM): 79.1%
viability, T/C (second compound 0.1 µM, first compound 3.16 µM): 94.3%
viability, T/C (second compound 0.1 µM, first compound 10 µM): 47.6%
viability, T/C (second compound 0.316 µM, first compound 0.0316 µM): 94.2%
viability, T/C (second compound 0.316 µM, first compound 0.1 µM): 120%
viability, T/C (second compound 0.316 µM, first compound 0.316 µM): 105%
viability, T/C (second compound 0.316 µM, first compound 1 µM): 76.2%
viability, T/C (second compound 0.316 µM, first compound 3.16 µM): 83.5%
viability, T/C (second compound 0.316 µM, first compound 10 µM): 58.4%
viability, T/C (second compound 1 µM, first compound 0.0316 µM): 95.9%
viability, T/C (second compound 1 µM, first compound 0.1 µM): 92.4%
viability, T/C (second compound 1 µM, first compound 0.316 µM): 87.5%
viability, T/C (second compound 1 µM, first compound 1 µM): 99.6%
viability, T/C (second compound 1 µM, first compound 3.16 µM): 104%
viability, T/C (second compound 1 µM, first compound 10 µM): 54.2%
viability, T/C (second compound 3.16 µM, first compound 0.0316 µM): 71%
viability, T/C (second compound 3.16 µM, first compound 0.1 µM): 90.4%
viability, T/C (second compound 3.16 µM, first compound 0.316 µM): 90.1%
viability, T/C (second compound 3.16 µM, first compound 1 µM): 84.3%
viability, T/C (second compound 3.16 µM, first compound 3.16 µM): 84.9%
viability, T/C (second compound 3.16 µM, first compound 10 µM): 77%
viability, T/C (second compound 10 µM, first compound 0.0316 µM): 85.3%
viability, T/C (second compound 10 µM, first compound 0.1 µM): 22.6%
viability, T/C (second compound 10 µM, first compound 0.316 µM): 67.2%
viability, T/C (second compound 10 µM, first compound 1 µM): 82.7%
viability, T/C (second compound 10 µM, first compound 3.16 µM): 65.3%
viability, T/C (second compound 10 µM, first compound 10 µM): 67.2%

IC50 (curve of compound): 2.32 nM [middle of 4 runs]
SMILES: CCc1c2c(nc3ccc(O)cc13)-c1cc3c(c(=O)n1C2)COC(=O)[C@]3(O)CC
viability, T/C (compound 0.000949 µM): 82% [middle of 4 runs]
viability, T/C (compound 0.003 µM): 39.4% [middle of 4 runs]
viability, T/C (compound 0.00949 µM): 17.2% [middle of 4 runs]
viability, T/C (compound 0.03 µM): 6.46% [middle of 4 runs]
viability, T/C (compound 0.0949 µM): 3.27% [middle of 4 runs]
viability, T/C (compound 0.3 µM): 2.43% [middle of 4 runs]

SMILES: CC(Nc1ccc2c(c1)OCCn1cc(N3C(=O)OCC3C(F)F)nc1-2)C(N)=O (configuration not stated)
viability, T/C (compound 0.0316 µM): 75.9% [middle of 4 runs]
viability, T/C (compound 0.1 µM): 49.6% [middle of 4 runs]
viability, T/C (compound 0.316 µM): 32% [middle of 4 runs]
viability, T/C (compound 1 µM): 21.9% [middle of 4 runs]
viability, T/C (compound 10 µM): 14.1% [middle of 4 runs]

IC50 (curve of compound): > 10000 nM
SMILES: Cc1nc(N2CCC3(CC2)COC(C)C3N)c(CO)nc1Sc1ccnc(N)c1Cl (configuration not stated)
viability, T/C (compound 0.0316 µM): 91.6% [middle of 4 runs]
viability, T/C (compound 0.1 µM): 102% [middle of 4 runs]
viability, T/C (compound 0.316 µM): 101% [middle of 4 runs]
viability, T/C (compound 3.16 µM): 100% [middle of 4 runs]
viability, T/C (compound 10 µM): 95.3% [middle of 4 runs]

IC50 (curve of compound): 778 nM [middle of 4 runs]
SMILES: CCC(CC)c1cc(NC2CCC(N)C2)n2nccc2n1 (configuration not stated)
viability, T/C (compound 0.0316 µM): 101% [middle of 4 runs]
viability, T/C (compound 1 µM): 41.9% [middle of 4 runs]
viability, T/C (compound 3.16 µM): 2.95% [middle of 4 runs]
viability, T/C (compound 10 µM): 2.61% [middle of 4 runs]
